Square brackets hold non-standard residues; d marks the D form. Peptide text beside a SMILES is read from it. * marks the point of attachment. Dolaproine = CO[C@@H]([C@@H]1CCCN1)[C@@H](C)C(=O)O; Dil = CC[C@H](C)[C@H](NC)[C@@H](CC(=O)O)OC; X1 = C[C@@H](N*)[C@@H](O)c1ccccc1; NMeV = CN[C@H](C(=O)O)C(C)C
Experiments:
[1] = test system: head and neck squamous cell carcinoma cell line (FaDu); assay: Cell viability assay (CellTiter-Glo), FaDu; format: cell-based; settings: for IC50: FaDu cells, 3 days incubation, CellTiter-Glo luminescence, 50% of untreated control
Experimental: (§1) FaDu or A549 cell lines were seeded into 96-well plates at a density of 3,000 cells per well and incubated at 37° C., 5% CO2. After 24 hours, 100 μL of drug at 9 concentrations (from 1000 nM, serially diluted 1/5) was added to the cell line. As the drugs, the compound of Chemical Formula 2 prepared according to Example 1, SC209 (MedChemExpress), and MMAE were treated, and at this time, a control group (drug concentration 0) without drug treatment was also prepared. After incubation under incubator conditions (37° C., 5% CO2) for 3 days, 100 µL of
(§2) CellTiter-Glo reagent (using CellTiter-Glo® Luminescent Cell Viability Assay kit (Promega, G7571)) was added to each well of the plate, followed by pipetting. After incubation for 10 minutes (RT), luminescence was measured, and when the luminescence value at drug concentration 0 is regarded as 100%, the concentration showing 50% luminescence value is the IC50 value.

[2] = test system: lung cancer cell line (A549); assay: Cell viability assay (CellTiter-Glo), A549; format: cell-based; settings: for IC50: A549 cells, 3 days incubation, CellTiter-Glo luminescence, 50% of untreated control
Experimental: as §1, §2

Row | SMILES | cell viability compared with SC209 and MMAE ([1]; FaDu cell line, 3 days treatment) | IC50 ([1]; Homo sapiens, 72 h) [nM] | IC50 ([2]; Homo sapiens, 72 h) [nM] | cell viability compared with SC209 and MMAE ([2]; lung cancer cell line (printed A529), 3 days treatment) | IC50 [1] [nM] | IC50 [2] [nM]
1 | CN[C@H](C(=O)N[C@H](C(=O)N(C)[C@H](/C=C(\C)C(=O)O)C(C)C)C(C)(C)C)C(C)(C)c1ccc(OC)c(N)c1 [Compound of Chemical Formula 2] | decreased to a level similar to that observed with SC209 and MMAE treatment | 6.17 | 22.6 | decreased to a level similar to that observed with SC209 and MMAE treatment |  | 
2 | CC[C@H](C)[C@@H]([C@@H](CC(=O)N1CCC[C@H]1[C@H](OC)[C@@H](C)C(=O)N[C@H](C)[C@@H](O)c1ccccc1)OC)N(C)C(=O)[C@@H](NC(=O)[C@@H](NC)C(C)C)C(C)C [MMAE, reference compound] (H-[NMeV]V[Dil][Dolaproine]-X1) |  |  |  |  | 1.57 | 3.72

— patent US20260263616A1, “NOVEL HE[…] USE THEREOF” (PINOTBIO, INC., priority 2023, published 2026)
